# Assay results taken from ChEMBL document CHEMBL6071165, “Design, synthesis and biological evaluation of plant-derived miliusol derivatives achieve TNBC profound regression in vivo” (Eur J Med Chem, 2024).
# Activity calls are given as the source filed them. The calls are words filed in the database; no cut-off is given here.
# Tests used:
# MDA-MB-231 [1] = test: Induction of apoptosis in human MDA-MB-231 cells assessed as early apoptotic cells at 2 uM incubated for 24 hrs by Annexin V-PI staining based flow cytometric analysis (reference value: 0.42%); format: functional
# BT-549 [2] = test: Antiproliferative activity against human BT-549 cells xenografted in female BALB/c mouse model assessed as fold change in cleavage of caspase-3 level at 20 mg/kg administered subcutaneously incubated for 24 hrs by Western blot analysis (reference value: 1.00%); format: functional; settings: route sc
# MDA-MB-231 [3] = test: Antiproliferative activity against human MDA-MB-231 cells xenografted in female BALB/c mouse model assessed as fold change in upregulation of BIP protein level at 20 mg/kg administered subcutaneously incubated for 24 hrs by Western blot analysis (reference value: 1.00%); format: functional; settings: route sc
# BT-549 [4] = test: Induction of apoptosis in human BT-549 cells incubated for 24 hrs by Annexin V-PI staining based flow cytometric analysis; format: functional, cell-based; settings: dose 0.5-2 µM
# MDA-MB-231 [5] = test: Induction of apoptosis in human MDA-MB-231 cells assessed as late apoptotic cells at 2 uM incubated for 24 hrs by Annexin V-PI staining based flow cytometric analysis (reference value: 1.83%); format: functional
# BT-549 [6] = test: Inhibition of cell migration in human BT-549 cells assessed as reduction in wound healing ability at 0 to 2 uM incubated for 48 hrs by Wound healing assay; format: functional, cell-based; settings: dose 0-2 µM
# BT-549 [7] = test: Inhibition of glycolysis in human BT-549 cells assessed as decrease in GLUT4 protein level at 0.5 to 2 uM incubated for 24 hrs by Western blot analysis; format: functional, cell-based; settings: dose 0.5-2 µM
# BT-549 [8] = test: Induction of ER stress in human BT-549 cells assessed as appearance of large number of vacuoles at 1 uM incubated for 24 hrs by TEM analysis; format: functional, cell-based
# [9] = Toxicity in female BALB/c mouse xenografted with human BT-549 cells assessed as effect on pathological changes in heart at 5 to 20 mg/kg, sc by H and E staining based analysis; format: organism-based; settings: in vivo, dose 5-20 mg/kg
# MDA-MB-231 [10] = test: Inhibition of DNA replication in human MDA-MB-231 cells assessed as reduction in EDU fluorescence intensity by EDU staining based fluorescence microscopic analysis; format: functional, cell-based; settings: dose 0.5-2 µM
# BT-549 [11] = test: Induction of apoptosis in human BT-549 cells assessed as late apoptotic cells at 0.5 uM incubated for 24 hrs by Annexin V-PI staining based flow cytometric analysis (reference value: 2.95%); format: functional
# MDA-MB-231 [12] = test: Antiproliferative activity against human MDA-MB-231 cells xenografted in female BALB/c mouse model assessed as fold change in inhibition of PKM2 expression at 10 mg/kg administered subcutaneously incubated for 24 hrs by Western blot analysis (reference value: 1.00%); format: functional; settings: route sc
# BT-549 [13] = test: Antiproliferative activity against human BT-549 cells xenografted in female BALB/c mouse model assessed as fold change in upregulation of BIP protein level at 20 mg/kg administered subcutaneously incubated for 24 hrs by Western blot analysis (reference value: 1.00%); format: functional; settings: route sc
# BT-549 [14] = test: Induction of ER stress in human BT-549 cells assessed as upregulation of BIP protein level at 1 uM incubated for 24 hrs by DAPI staining based immunofluorescence analysis; format: functional, cell-based
# MDA-MB-231 [15] = test: Induction of apoptosis in human MDA-MB-231 cells assessed as necrotic cells at 2 uM incubated for 24 hrs by Annexin V-PI staining based flow cytometric analysis (reference value: 1.29%); format: functional
# MDA-MB-231 [16] = test: Induction of apoptosis in human MDA-MB-231 cells assessed as viable cells at 1 uM incubated for 24 hrs by Annexin V-PI staining based flow cytometric analysis (reference value: 96.5%); format: functional; settings: read-out: Activity
# [17] = Toxicity in female BALB/c mouse xenografted with human MDA-MB-231 cells assessed as effect on pathological changes in kidney at 5 to 20 mg/kg, sc by H and E staining based analysis; format: organism-based; settings: in vivo, dose 5-20 mg/kg
# BT-549 [18] = test: Downregulation of c-Jun level in human BT-549 cells incubated for 24 hrs by Western blot analysis; format: functional, cell-based; settings: dose 0.5-2 µM
# BT-549 [19] = test: Induction of apoptosis in human BT-549 cells assessed as early apoptotic cells at 2 uM incubated for 24 hrs by Annexin V-PI staining based flow cytometric analysis (reference value: 0.78%); format: functional
# MDA-MB-231 [20] = test: Downregulation of c-Jun level in human MDA-MB-231 cells incubated for 24 hrs by Western blot analysis; format: functional, cell-based; settings: dose 0.5-2 µM
# [21] = Toxicity in female BALB/c mouse xenografted with human BT-549 cells assessed as effect on pathological changes in lung at 5 to 20 mg/kg, sc by H and E staining based analysis; format: organism-based; settings: in vivo, dose 5-20 mg/kg
# MDA-MB-231 [22] = test: Inhibition of cell migration in human MDA-MB-231 cells assessed as reduction in MMP-2 protein level at 1 uM incubated for 24 hrs by DAPI staining based immunofluorescence analysis; format: functional
# MDA-MB-231 [23] = test: Induction of apoptosis in human MDA-MB-231 cells assessed as necrotic cells at 0.5 uM incubated for 24 hrs by Annexin V-PI staining based flow cytometric analysis (reference value: 1.29%); format: functional
# [24] = Toxicity in female BALB/c mouse xenografted with human BT-549 cells assessed as effect on pathological changes in liver at 5 to 20 mg/kg, sc by H and E staining based analysis; format: organism-based; settings: in vivo, dose 5-20 mg/kg
# MDA-MB-231 [25] = test: Antiproliferative activity against human MDA-MB-231 cells xenografted in female BALB/c mouse model assessed as fold change in cleavage of caspase-3 level at 5 mg/kg administered subcutaneously incubated for 24 hrs by Western blot analysis (reference value: 1.00%); format: functional; settings: route sc
# MDA-MB-231 [26] = test: Antitumor activity against human MDA-MB-231 cells xenografted in female BALB/c mouse model assessed as reduction of proliferation rate of tumor at 5 to 20 mg/kg administered subcutaneously and measured every day; format: functional, organism-based; settings: dose 5-20 mg/kg, route sc
# MDA-MB-231 [27] = test: Induction of ER stress in human MDA-MB-231 cells assessed as activation of Xbp-1s protein level incubated for 24 hrs by Western blot analysis; format: functional, cell-based; settings: dose 0.5-2 µM
# MDA-MB-231 [28] = test: Induction of ER stress in human MDA-MB-231 cells assessed as increase in calcium ion content at 2 uM incubated for 24 hrs by Fluo-3AM staining based flow cytometric analysis; format: functional, cell-based
# [29] = Toxicity in female BALB/c mouse xenografted with human MDA-MB-231 cells assessed as effect on pathological changes in liver at 5 to 20 mg/kg, sc by H and E staining based analysis; format: organism-based; settings: in vivo, dose 5-20 mg/kg
# MDA-MB-231 [30] = test: Induction of apoptosis in human MDA-MB-231 cells assessed as upregulation of Bax expression at 0.5 to 2 uM incubated for 24 hrs by Western blot analysis; format: functional, cell-based; settings: dose 0.5-2 µM
# BT-549 [31] = test: Antiproliferative activity against human BT-549 cells xenografted in female BALB/c mouse model assessed as inhibition of Ki-67 expression at 5 to 20 mg/kg administered subcutaneously by immunohistochemical staining based microscopic analysis; format: functional, organism-based; settings: dose 5-20 mg/kg, route sc
# [32] = Antiproliferative activity against human MCF-10A cells assessed as inhibition of cell proliferation incubated for 48 hrs by MTT assay; format: toxicity, cell-based
# MDA-MB-231 [33] = test: Inhibition of glycolysis in human MDA-MB-231 cells assessed as decrease in PKM2 protein level at 0.5 to 2 uM incubated for 24 hrs by Western blot analysis; format: functional, cell-based; settings: dose 0.5-2 µM
structure (smiles),measurement,setting,value
CC(C)=CCC/C(C)=C/[C@H]1OC(=O)CC12C[C@H](OC(=O)Cc1ccc(NC(=O)/C=C/c3ccccc3)cc1)C=CC2=O (stereo partly drawn),Activity,MDA-MB-231 [1],2.23%
same,fold change (FC),BT-549 [2],1.74
same,fold change (FC),MDA-MB-231 [3],2.42
same,Activity,BT-549 [4],Dose-Dependent Effect
same,Activity,MDA-MB-231 [5],42.4%
same,inhibition,BT-549 [6],Active
same,inhibition,BT-549 [7],Active
same,Activity,BT-549 [8],Active
same,Activity,[9],Non-Toxic
same,inhibition,MDA-MB-231 [10],Dose-Dependent Effect
same,Activity,BT-549 [11],3.62%
same,fold change (FC),MDA-MB-231 [12],0.62
same,fold change (FC),BT-549 [13],2.37
same,Activity,BT-549 [14],Active
same,Activity,MDA-MB-231 [15],6.53%
same,viability at 1 µM,MDA-MB-231 [16],42%
same,Activity,[17],Non-Toxic
same,Activity,BT-549 [18],Dose-Dependent Effect
same,Activity,BT-549 [19],11.1%
same,Activity,MDA-MB-231 [20],Dose-Dependent Effect
same,Activity,[21],Non-Toxic
same,inhibition,MDA-MB-231 [22],Active
same,Activity,MDA-MB-231 [23],12.7%
same,Activity,[24],Non-Toxic
same,fold change (FC),MDA-MB-231 [25],1.11
same,Activity,MDA-MB-231 [26],Active
same,Activity,MDA-MB-231 [27],Active
same,Activity,MDA-MB-231 [28],Active
same,Activity,[29],Non-Toxic
same,Activity,MDA-MB-231 [30],Active
same,Activity,BT-549 [31],Active
same,IC50 at 48 h,[32],16 µM
same,inhibition,MDA-MB-231 [33],Active
